Data set [1] in a line: metabolic stability. The format is in vitro ADME.
Data set [2] deals with T1, sEH (Homo sapiens, UniProt P34913).
T1 sequence (P34913 1-555): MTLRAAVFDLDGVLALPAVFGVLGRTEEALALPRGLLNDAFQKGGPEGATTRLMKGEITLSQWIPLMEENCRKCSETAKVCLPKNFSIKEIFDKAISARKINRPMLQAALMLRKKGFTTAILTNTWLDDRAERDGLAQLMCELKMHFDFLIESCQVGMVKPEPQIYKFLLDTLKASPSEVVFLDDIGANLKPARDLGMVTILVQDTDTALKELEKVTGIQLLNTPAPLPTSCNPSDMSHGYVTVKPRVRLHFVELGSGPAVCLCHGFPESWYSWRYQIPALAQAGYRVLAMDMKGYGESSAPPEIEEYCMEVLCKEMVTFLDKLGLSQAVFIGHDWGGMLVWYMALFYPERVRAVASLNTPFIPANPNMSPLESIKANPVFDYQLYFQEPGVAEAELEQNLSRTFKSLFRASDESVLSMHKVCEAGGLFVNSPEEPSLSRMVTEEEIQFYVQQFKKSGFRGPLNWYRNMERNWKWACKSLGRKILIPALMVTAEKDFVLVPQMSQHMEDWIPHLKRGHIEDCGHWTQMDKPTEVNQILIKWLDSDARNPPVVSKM
The data set is described as follows: inhibition of soluble epoxide hydrolase. The format is biochemical. The source says:
Any of a number of standard assays for determining epoxide hydrolase activity can be used to determine inhibition of sEH. For example, suitable assays are described in Gill, et al., Anal Biochem 131, 273-282 (1983); and Borhan, et al., Analytical Biochemistry 231, 188-200 (1995)). Suitable in vitro assays are described in Zeldin et al., J Biol. Chem. 268:6402-6407 (1993). Suitable in vivo assays are described in Zeldin et al., Arch Biochem Biophys 330:87-96 (1996). […]
The enzyme also can be detected based on the binding of specific ligands to the catalytic site which either immobilize the enzyme or label it with a probe such as dansyl, fluoracein, luciferase, green fluorescent protein or other reagent. […] The enzyme also can be detected based on the generation of fluorescent products following the hydrolysis of the epoxide. […]

Data set [3] concerns arachidonic acid metabolites in mouse plasma. The data set is described as follows: plasma oxylipin metabolites in mice exposed to LPS (LC-MS/MS). The data set is classed as in vivo. The following applies: AUDA-BE 20 mg/Kg alone.
A short description of data set [4]: tail flick assay, without induction of pain. The format is in vivo, mice. As to conditions: sc in oleic oil, responses after 90 minutes; no induction of pain. The method, then: Briefly, mice are kept under 12:12 h light: dark cycle and water and food is supplied ad libitum. Mice are trained for three days to the experimental chambers in 30 min sessions each time. The next day baseline readings are taken. Vehicle control (oleic oil) is then injected sc in the next day and measurements are taken. Two days later, animals are injected through the sc route with test compounds dissolved in the oil vehicle and their responses are recorded after 90 minutes.
Tail flick and hind paw withdrawal latency tests are conducted according to D'Amour and Smith, J Pharmacol Exp Ther 72:74-9 (1941), and Woolfe and McDonald, J Pharmacol Exp Ther, 80:300-7 (1944). In tail flick assays, mice are placed in restrainers and left undisturbed for 30 minutes. Readings are then taken by placing the posterior end of the tail onto a tail flick apparatus that has a radiant heat source set to 55 C. Five measurements per animal are taken at two-minute intervals. The latency to move the tail is recorded. In hind paw withdrawal assays, the mice are placed in an experimental chamber with a glass surface. The temperature of this surface is kept constant at 30° C. After a 30-minute period of acclimation, radiant heat is applied to the plantar surface of the hind paw. Five measurements per animal are taken at two-minute intervals. The latency to move the paw is recorded. […]
On the technique in general: In hot-plate and tail-flick tests a longer latency is read as antinociception.

Data set [5] concerns COX-2 protein. The data set is described as follows: Western immunoblot of COX-2 protein in livers of mice. The format is in vivo. The following applies: liver; LPS 10 mg/Kg i.p.; COX-2 inhibitor 50 mg/Kg or AUDA-BE 20 mg/Kg sc (FIG. 8).
Method: Horizontal axis: treatment administered to the mice. First column: vehicle (oleic acid, administered subcutaneously (“s.c.” or “sc”)). Second column: lipopolysaccharide (“LPS”, 10 mg/Kg i.p.) and vehicle. […] Fifth column: AUDA-BE (20 mg/Kg sc). Sixth column: AUDA-BE (20 mg/Kg sc)+LPS (10 mg/Kg i.p.). […] Vertical axis: depicts percentage of protein induced in test animals receiving designated treatment compared to that of control mice receiving vehicle without LPS.
Western immunoblot analysis was performed with proteins isolated from liver to detect cycloxygenase 2 (COX-2). The isolated proteins were separated by electrophoresis on 10% SDS-PAGE and then transferred onto polyvinylidene fluoride membranes (Immobilon P, Millipore Corp., Bedford, Mass.). […] The membranes were incubated with rabbit anti-mouse HRP-linked IgG (Amersham, Arlington Heights, Ill.) at 1:10,000 dilution, washed, then contacted with secondary antibody and visualized using SuperSignal® West Femto Maximum Sensitivity Substrate (Pierce Biotechnology, Inc., Rockford, Ill.), a chemiluminiscence detection system, per manufacturer's instructions. The immunodetectable bands were quantified by densitometry with Kodak 1.D Image Analysis System v.
The test system of data set [6] is COX-2 / COX-1. As to conditions: the smaller the ratio, the more specific for COX-2; cited from earlier work.

In the case of `CCCCCCCCCCCCNC(=O)NC12CC3CC(CC(C3)C1)C2` [ADU, N-Adamantyl-N′-dodecyl urea], the metabolic stability entry in data set [1] is “metabolically stable”. Besides, in data set [2], the “activity as an inhibitor of sEH” value was “particularly high activity”.
For the compound `CCCCOC(=O)CCCCCCCCCCCNC(=O)NC12CC3CC(CC(C3)C1)C2` [AUDA-BE, 12-(3-adamantane-1-yl-ureido)-dodecanoic acid butyl ester], in data set [3], the “5-HETE, percentage of metabolite compared to control mice receiving vehicle without LPS” value was found to be 262±21%; the “6-keto-PGF1a, percentage of metabolite compared to control mice receiving vehicle without LPS” value was found to be 128±6%; the “PGE2, percentage of metabolite compared to control mice receiving vehicle without LPS” value came to 241±2%; the “ΣDHOME, percentage of metabolite compared to control mice receiving vehicle without LPS” value is given as 141±15%. For the same compound, the “ΣEpOME, percentage of metabolite compared to control mice receiving vehicle without LPS” value in data set [3] is listed as 122±8%. Further, the “analgesic effect in tail flick assay” value in data set [4] is “slight but significant analgesic effect”. Besides, in data set [5], the “amount of COX-2 relative to control mice” value is listed as “about 4 times”.
As to `CC(=O)Oc1ccccc1C(=O)O` [Aspirin, aspirin], the “COX-2 (IC50)/COX-1 (IC50) ratio” value in data set [6] is listed as 0.32.

These data come from patent US7951831B2, “Use of inhibitors of soluble epoxide hydrolase to synergize activity of COX and 5-LOX inhibitors” (The Regents of the University of California, priority 2005, dated 2011).
